Reference: US10738056B2 (Aduro BioTech, Inc., priority 2017, dated 2020)

Legend:
[1] = test system: cGAS/STING pathway in THP1 cells; assay: THP1 cell-based cGAS/STING pathway activity assay (IRF-3-linked luciferase reporter); conditions: Homo sapiens, THP-1
From the text: A cellular assay can be used to assess the compounds of the invention for their ability to inhibit the cGAS/STING pathway. Cells that express a luciferase-based reporter that is linked to IRF-3 activation are used to determine response as a function of compound concentration. Such an assay is described in Vincent et al., Nature Communications 2017, 8(1):750, doi: 10.1038/s41467-017-00833-9.
A cellular assay can be used to assess the compounds of the invention for their ability to inhibit the cGAS/STING pathway. Cells that express a luciferase-based reporter that is linked to IRF-3 activation are used to determine response as a function of compound concentration. Such an assay is described in Vincent et al., Nature Communications 2017, 8(1):750, doi: 10.1038/s41467-017-00833-9. Compounds of the invention were assessed using similar assay methods in a THP1 cell assay to generate IC50 values as provided in the following Table 16. In this table, activity level “A” indicates an IC50 value less than 20 μM, “B” indicates an IC50 value between 20 and 100 μM, and “C” indicates an IC50 value above the upper limit of the assay (100 μM), or where an IC50 value could not be generated from the data.

[2] = target: Human cGAS amino acids 155-522 (Homo sapiens (Human), UniProt Q8N884); assay: cGAS biochemical activity assay (ATP remaining, Kinase-Glo Max luminescence); conditions: human cGAS 155-522, ATP remaining (Kinase-Glo Max); read-out: cGAS IC50
Human cGAS amino acids 155-522, sequence (Q8N884 157-522): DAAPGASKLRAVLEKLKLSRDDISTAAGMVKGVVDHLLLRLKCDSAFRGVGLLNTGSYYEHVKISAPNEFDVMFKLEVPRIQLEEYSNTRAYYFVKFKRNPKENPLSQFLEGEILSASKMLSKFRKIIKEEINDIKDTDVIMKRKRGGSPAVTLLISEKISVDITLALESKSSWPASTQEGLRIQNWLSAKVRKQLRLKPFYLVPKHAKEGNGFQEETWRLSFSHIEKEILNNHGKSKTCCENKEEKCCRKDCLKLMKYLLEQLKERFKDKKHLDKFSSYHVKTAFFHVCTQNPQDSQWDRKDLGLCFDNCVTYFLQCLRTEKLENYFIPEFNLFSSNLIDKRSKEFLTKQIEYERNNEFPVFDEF

IC50 [1]	IC50 [2]	Structure (SMILES)
> 100 µM	< 20 µM	COc1cccc2oc(-c3c(C[S+](C)[O-])[nH]c4c(-c5ccccc5)c(C(F)(F)F)nn4c3=O)nc12 (stereo not shown) [Compound C1137, 6-(4-methoxybenzo[d]oxazol-2-yl)-5-((methylsulfinyl)methyl)-3-phenyl-2-(trifluoromethyl)pyrazolo[1,5-a]pyrimidin-7(4H)-one]
> 100 µM	< 20 µM	Cc1[nH]c2c(-c3ccccc3)c(C(F)(F)F)nn2c(=O)c1-c1nnc(-c2nccc(O)n2)o1 [Compound D1078, 6-(5-(4-hydroxypyrimidin-2-yl)-1,3,4-oxadiazol-2-yl)-5-methyl-3-phenyl-2-(trifluoromethyl)pyrazolo[1,5-a]pyrimidin-7(4H)-one]
> 100 µM	< 20 µM	COc1cc(CO)cc2oc(-c3c(C)[nH]c4c(-c5ccccc5)c(C#N)nn4c3=O)nc12 [Compound C1203, 6-(6-(hydroxymethyl)-4-methoxybenzo[d]oxazol-2-yl)-5-methyl-7-oxo-3-phenyl-4,7-dihydropyrazolo[1,5-a]pyrimidine-2-carbonitrile]
< 20 µM	< 20 µM	Cc1[nH]c2c(-c3ccccc3)c(C(F)(F)F)nn2c(=O)c1-c1nc2c(F)cccc2o1 [Compound C1076, 6-(4-fluorobenzo[d]oxazol-2-yl)-5-methyl-3-phenyl-2-(trifluoromethyl)pyrazolo[1,5-a]pyrimidin-7(4H)-one]
> 100 µM	20 to 250 µM	Cc1[nH]c2c(-c3ccccc3)c(C(F)(F)F)nn2c(=O)c1-c1nnc(C(C)(O)C(F)(F)F)o1 (stereo not shown) [Compound D1008, 5-methyl-3-phenyl-6-(5-(1,1,1-trifluoro-2-hydroxypropan-2-yl)-1,3,4-oxadiazol-2-yl)-2-(trifluoromethyl)pyrazolo[1,5-a]pyrimidin-7(4H)-one]
> 100 µM	< 20 µM	COc1nc(N)cc2oc(-c3c(C)[nH]c4c(-c5ccccc5)c(C#N)nn4c3=O)nc12 [Compound C1218, 6-(6-amino-4-methoxyoxazolo[4,5-c]pyridin-2-yl)-5-methyl-7-oxo-3-phenyl-4,7-dihydropyrazolo[1,5-a]pyrimidine-2-carbonitrile]
> 100 µM	< 20 µM	CCCS(=O)(=O)NC(=O)c1c(C)[nH]c2c(-c3ccccc3)c(C(F)(F)F)nn2c1=O [Compound A1111, 5-methyl-7-oxo-3-phenyl-N-(propylsulfonyl)-2-(trifluoromethyl)-4,7-dihydropyrazolo[1,5-a]pyrimidine-6-carboxamide]
> 100 µM	< 20 µM	Cc1[nH]c2c(-c3ccccc3)c(C(F)(F)F)nn2c(=O)c1-c1nnc(C2CCCN(S(C)(=O)=O)C2)o1 (stereo not shown) [Compound D1040, 5-methyl-6-(5-(1-(methylsulfonyl)piperidin-3-yl)-1,3,4-oxadiazol-2-yl)-3-phenyl-2-(trifluoromethyl)pyrazolo[1,5-a]pyrimidin-7(4H)-one]
> 100 µM	< 20 µM	COc1cccc2oc(-c3c(C4=CCC(C(=O)O)CC4)[nH]c4c(-c5ccccc5)c(C(F)(F)F)nn4c3=O)nc12 (stereo not shown) [Compound C1234, 4-(6-(4-methoxybenzo[d]oxazol-2-yl)-7-oxo-3-phenyl-2-(trifluoromethyl)-4,7-dihydropyrazolo[1,5-a]pyrimidin-5-yl)cyclohex-3-ene-1-carboxylic acid]
20 to 100 µM	< 20 µM	CC(=O)N1CCCCC1c1nnc(-c2c(C)[nH]c3c(-c4ccccc4)c(C(F)(F)F)nn3c2=O)o1 (stereo not shown) [Compound D1057, 6-(5-(1-acetylpiperidin-2-yl)-1,3,4-oxadiazol-2-yl)-5-methyl-3-phenyl-2-(trifluoromethyl)pyrazolo[1,5-a]pyrimidin-7(4H)-one]
20 to 100 µM	< 20 µM	COc1ccnc(NC(=O)c2c(C)[nH]c3c(-c4ccccc4)c(C(F)(F)F)nn3c2=O)n1 [Compound A1104, N-(4-methoxypyrimidin-2-yl)-5-methyl-7-oxo-3-phenyl-2-(trifluoromethyl)-4,7-dihydropyrazolo[1,5-a]pyrimidine-6-carboxamide]
20 to 100 µM	< 20 µM	Cc1[nH]c2c(-c3ccccc3)c(C(F)(F)F)nn2c(=O)c1-c1nc2ccc(N)cc2o1 [Compound C1156, 6-(6-aminobenzo[d]oxazol-2-yl)-5-methyl-3-phenyl-2-(trifluoromethyl)pyrazolo[1,5-a]pyrimidin-7(4H)-one]
> 100 µM	< 20 µM	Cc1[nH]c2c(-c3ccccc3)c(C#N)nn2c(=O)c1-c1nc2ccc(N)c(Cl)c2o1 [Compound C1271, 6-(6-amino-7-chlorobenzo[d]oxazol-2-yl)-5-methyl-7-oxo-3-phenyl-4,7-dihydropyrazolo[1,5-a]pyrimidine-2-carbonitrile]
> 100 µM	< 20 µM	Cc1[nH]c2c(-c3ccccc3)c(C(F)(F)F)nn2c(=O)c1-c1nc2c([S+](C)[O-])cccc2o1 (stereo not shown) [Compound C1097, 5-methyl-6-(4-(methylsulfinyl)benzo[d]oxazol-2-yl)-3-phenyl-2-(trifluoromethyl)pyrazolo[1,5-a]pyrimidin-7(4H)-one]
20 to 100 µM	20 to 250 µM	COc1ccccc1NC(=O)Cc1c(C)[nH]c2c(-c3ccccc3)c(C(F)(F)F)nn2c1=O [Compound B1010, N-(2-methoxyphenyl)-2-(5-methyl-7-oxo-3-phenyl-2-(trifluoromethyl)-4,7-dihydropyrazolo[1,5-a]pyrimidin-6-yl)acetamide]
> 100 µM	< 20 µM	Cc1[nH]c2c(-c3ccccc3)c(C(F)(F)F)nn2c(=O)c1C(=O)NS(=O)(=O)C1CCCCC1 [Compound A1124, N-(cyclohexylsulfonyl)-5-methyl-7-oxo-3-phenyl-2-(trifluoromethyl)-4,7-dihydropyrazolo[1,5-a]pyrimidine-6-carboxamide]
20 to 100 µM	< 20 µM	COc1cccc2oc(-c3c(COC4COC4)[nH]c4c(-c5ccccc5)c(C(F)(F)F)nn4c3=O)nc12 [Compound C1152, 6-(4-methoxybenzo[d]oxazol-2-yl)-5-((oxetan-3-yloxy)methyl)-3-phenyl-2-(trifluoromethyl)pyrazolo[1,5-a]pyrimidin-7(4H)-one]
20 to 100 µM	< 20 µM	COc1cccc2oc(-c3c(COCCO)[nH]c4c(-c5ccccc5)c(C(F)(F)F)nn4c3=O)nc12 [Compound C1226, 5-((2-hydroxyethoxy)methyl)-6-(4-methoxybenzo[d]oxazol-2-yl)-3-phenyl-2-(trifluoromethyl)pyrazolo[1,5-a]pyrimidin-7(4H)-one]
> 100 µM	20 to 250 µM	COC(C)(C)c1nnc(-c2c(C)[nH]c3c(-c4ccccc4)c(C(F)(F)F)nn3c2=O)o1 [Compound D1048, 6-(5-(2-methoxypropan-2-yl)-1,3,4-oxadiazol-2-yl)-5-methyl-3-phenyl-2-(trifluoromethyl)pyrazolo[1,5-a]pyrimidin-7(4H)-one]
< 20 µM	< 20 µM	Cc1[nH]c2c(-c3ccccc3)c(C(F)(F)F)nn2c(=O)c1-c1nc2c(Br)cccc2o1 [Compound C1040, 6-(4-bromobenzo[d]oxazol-2-yl)-5-methyl-3-phenyl-2-(trifluoromethyl)pyrazolo[1,5-a]pyrimidin-7(4H)-one]
> 100 µM	< 20 µM	COc1cccc2oc(-c3c(CN(C)C)[nH]c4c(-c5ccccc5)c(C(F)(F)F)nn4c3=O)nc12 [Compound C1109, 5-((dimethylamino)methyl)-6-(4-methoxybenzo[d]oxazol-2-yl)-3-phenyl-2-(trifluoromethyl)pyrazolo[1,5-a]pyrimidin-7(4H)-one]
> 100 µM	< 20 µM	COc1ccccc1S(=O)(=O)NC(=O)c1c(C)[nH]c2c(-c3ccccc3)c(C(F)(F)F)nn2c1=O [Compound A1121, N-((2-methoxyphenyl)sulfonyl)-5-methyl-7-oxo-3-phenyl-2-(trifluoromethyl)-4,7-dihydropyrazolo[1,5-a]pyrimidine-6-carboxamide]
20 to 100 µM	< 20 µM	COc1cccc(NC(=O)c2c(C)[nH]c3c(-c4ccccc4)c(C(F)(F)F)nn3c2=O)n1 [Compound A1064, N-(6-methoxypyridin-2-yl)-5-methyl-7-oxo-3-phenyl-2-(trifluoromethyl)-4,7-dihydropyrazolo[1,5-a]pyrimidine-6-carboxamide]
> 100 µM	< 20 µM	COc1cccc2oc(-c3c(COCC4CNC(=O)O4)[nH]c4c(-c5ccccc5)c(C#N)nn4c3=O)nc12 (stereo not shown) [Compound C1251, 6-(4-methoxybenzo[d]oxazol-2-yl)-7-oxo-5-(((2-oxooxazolidin-5-yl)methoxy)methyl)-3-phenyl-4,7-dihydropyrazolo[1,5-a]pyrimidine-2-carbonitrile]
20 to 100 µM	< 20 µM	Cc1[nH]c2c(-c3ccccc3)c(C(F)(F)F)nn2c(=O)c1C(=O)Nc1cccc(N)c1 [Compound A1069, N-(3-aminophenyl)-5-methyl-7-oxo-3-phenyl-2-(trifluoromethyl)-4,7-dihydropyrazolo[1,5-a]pyrimidine-6-carboxamide]
< 20 µM	< 20 µM	Cc1[nH]c2c(-c3ccccc3)c(C(F)(F)F)nn2c(=O)c1C(=O)Nc1cccc2c1OCCC2 [Compound A1107, N-(chroman-8-yl)-5-methyl-7-oxo-3-phenyl-2-(trifluoromethyl)-4,7-dihydropyrazolo[1,5-a]pyrimidine-6-carboxamide]
